These results are taken from the NIST ThermoML archive (doi:10.1021/je050048y).

Numbers after ± are expanded uncertainties.

The nature of the data set: mn = molality of the nth substance listed, in mol/kg. Particulars: 298.15 K, 101 kPa, Liquid.

Consider `NCC(=O)O` [2-aminoacetic acid] + O, for which the viscosity is, setting by setting: (m1 = 0.4991) 0.956 ± 0.036 mPa·s; (m1 = 1.999) 1.189 ± 0.043 mPa·s; (m1 = 3) 1.374 ± 0.049 mPa·s.

Consider `C[C@H](N)C(=O)O` [(S)-2-aminopropanoic acid] + O, for which the viscosity reads like this: (m1 = 0.1003) 0.918 ± 0.034 mPa·s; (m1 = 0.4995) 1.017 ± 0.038 mPa·s; (m1 = 0.7497) 1.079 ± 0.04 mPa·s; (m1 = 1) 1.152 ± 0.042 mPa·s.

Broadly, the viscosity is the internal friction of a fluid under shear.
